# Measured values reported in patent publication US20210348164A1, “ENDOGENOUS CYTOPLASMIC ALU COMPLEMENTARY DNA IN AGE-RELATED MACULAR DEGENERATION” (University of Virginia Patent Foundation, priority 2018, published 2021).
# System: L1 ORF2p-facilitated Alu RNA-induced RPE degeneration
# Assay: Alu RNA-induced RPE degeneration in L1 ORF2-expressing Oryzomys palustris
# Type: in vivo
# Conditions: high dose (500 μmol)
# Protocol: Assessment of RPE degeneration. Subretinal injections were performed as previously described (Kaneko et al., 2011; Tarallo et al., 2012; Kerur et al., 2013; Fowler et al., 2014; Kim et al., 2014). Seven days after subretinal injection, RPE health was assessed by fundus photography and immunofluorescence staining of zonula occludens-1 (ZO-1) on RPE flat mounts (whole mount of posterior eye cup containing RPE and choroid layers). Mouse RPE/choroid flat mounts were fixed with 2% paraformaldehyde, stained with rabbit polyclonal antibodies against mouse ZO-1 (1:100; Invitrogen Corp. Carlsbad, Calif., United States of America) and visualized with Alexa-594 (Invitrogen Corp.). […]
# Quantification of RPE degeneration. Quantification of RPE degeneration was performed using two methodologies (binary assignment and cellular morphometry) as described previously (Kerur et al., 2018): Binary assignment (healthy versus unhealthy; Kerur et al., 2013; Fowler et al., 2014; Kim et al., 2014; Kerur et al., 2018) was independently performed by two blinded raters (inter-rater agreement=99.7%; Pearson r2=0.986, P<0.0001; Fleiss x=0.993, P<0.0001). […]
structure (smiles),measurement,value
"CC(C)Nc1cccnc1N1CCN(C(=O)c2cc3cc(NS(C)(=O)=O)ccc3[nH]2)CC1 [DLV, delavirdine]",Alu RNA-induced RPE degeneration,blocked
